Converted amounts (≈) assume the structure as drawn.
How the values were obtained:
[1] = test system: Amphibalanus amphitrite; assay: Antifouling activity against Balanus amphitrite assessed as inhibition of cyprid larval settlement; assay type: functional, organism-based
[2] = test system: Amphibalanus amphitrite; assay: Lethality against Balanus amphitrite cyprid larvae

| Compound | EC50 [1] [µg/mL] | LD100 [2] [µg/mL] |
| --- | --- | --- |
| CC(=O)OC(CCC(C)C)[C@@H](C)[C@]1(O)CC[C@@]2(O1)[C@@H]1CCC3=CC(=O)C=C[C@]3(C)[C@H]1C[C@H](OC(C)=O)[C@]2(C)O (stereo partly drawn) [ISOGOSTERONE C] | 2.2 (≈ 4.02 µM) | – |
| CC(C)=CC(O)C(O)[C@@H](C)[C@H]1CC[C@H]2[C@@H]3CC[C@H]4CC(=O)C=C[C@]4(C)[C@H]3CC[C@]12C (stereo partly drawn) | – | 100 |
| C=C[C@H]1CC[C@H]2[C@@H]3CCc4cc(O[C@@H]5O[C@@H](C)[C@@H](OC(C)=O)[C@@H](O)[C@@H]5O)ccc4[C@H]3CC[C@]12C | – | 100 |
| CC(=O)O[C@H]1C[C@H]2[C@@H](CCC3=CC(=O)C=C[C@@]32C)[C@]23CC[C@]([C@H](C)CCCC(C)C)(O[C@@]12C)O3 [ISOGOSTERONE A] | 2.2 (≈ 4.67 µM) | – |
| CC(=O)OC(CCC(C)C)[C@@H](C)[C@]12CC[C@@]3(O1)[C@@H]1CCC4=CC(=O)C=C[C@]4(C)[C@H]1C[C@H](OC(C)=O)[C@]3(C)O2 (stereo partly drawn) [ISOGOSTERONE D] | 2.2 (≈ 4.16 µM) | – |
| CC(=O)O[C@H]1C[C@H]2[C@@H](CCC3=CC(=O)C=C[C@@]32C)[C@]2(CC[C@@](O)([C@H](C)C(=O)CCC(C)C)O2)[C@@]1(C)O [ISOGOSTERONE B] | 2.2 (≈ 4.38 µM) | – |
| C=C[C@H]1CC[C@H]2[C@@H]3CCc4cc(OC)ccc4[C@H]3CC[C@]12C | – | 100 |
| COC(=O)/C=C/[C@@H](C)[C@H]1CC[C@H]2[C@@H]3CCC4=CC(=O)C=C[C@]4(C)[C@H]3CC[C@]12C | – | 100 |

From ChEMBL document CHEMBL1144141, “Four new steroids from two octocorals” (J Nat Prod, 1999)
